Assay results from publication PMC10420250, “Assessment of Purity, Stability, and Pharmacokinetics of NGP-1, a Novel Prodrug of GS441254 with Potential Anti-SARS-CoV-2 Activity, Using Liquid Chromatography” (Molecules, 2023).

Experiments:
several viruses = details: in vitro; cited from earlier work
[1] = Stability of NGP-1 in artificial digestive juices (HPLC-DAD); assay type: in vitro ADME
Source text: Esterification is the predominant reaction used for the generation of prodrugs, owing to the facile hydrolysis of esters by various and ubiquitous esterases present in the various matrices. However, the presence of esters, particularly cyclic lactones, may result in instability in acidic, basic, or esterase environments. In this study, HPLC-DAD was employed to assess the stability of NGP-1 in different artificial digestive juices. The test samples were collected at various time intervals subsequent to dissolving NGP-1 in artificial gastric juice (diluted HCl with pepsin, pH = 1.5) and artificial intestinal juice (PBS with trypsin, pH = 6.8).
Mobile phase A consisted of a phosphoric acid solution, while mobile phase B consisted of ACN. Gradient elution was employed to separate the components under the following conditions: 0–4 min, 30–50% B; 4–10 min, 50% B. The specific parameters for liquid chromatography are presented in Table 2. […] Then, the content of the objective analytes in each sample was calculated using the external standard method.

[2] = Pharmacokinetic study in rats via gavage administration, plasma GS441 by LC-MS/MS; assay type: in vivo, Sprague-Dawley rats; details: equimolar doses
Description: A pharmacokinetic study was carried out in vivo using Sprague-Dawley rats to assess the behavior of NGP-1 when administered orally through the gastrointestinal route. The rats were randomly categorized into two groups (n = 6) and subjected to a 12 h overnight fast prior to oral administration. […] After administration, 0.5 mL of orbital blood was collected at specific time intervals in an EP tube with heparin moisturizing.
All the blood samples were promptly centrifuged at 4 °C to separate the upper plasma. A volume of 50 µL of plasma was subsequently transferred to a tube pre-filled with 450 µL of protein precipitant (H2O:ACN:MeOH = 1:4:4 containing 20 ng/mL of QX). […] After thorough mixing, the samples underwent high-speed centrifugation. The supernatants were extracted and centrifugated again. The resulting supernatants were collected and transferred into a vial for subsequent analysis.
The AB SCIEX QTRAP®4500 instrument, which comprised an LC system (ExionLC^TM, SCIEX, Framingham, MA, USA) and a triple-quadrupole mass spectrometer with an ESI interface, was used for the experiment. […] The data were acquired and analyzed using Analyst 1.7.3 coupled with MultiQuant 3.0.3 (SCIEX).

Structure (SMILES) | EC50 comparison GS441 vs RDV (several viruses) | Degradation rate in artificial gastric juice ([1]; AGJ, diluted HCl with pepsin, pH = 1.5) | Stability in artificial intestinal juice ([1]; AIJ, PBS with trypsin, pH 6.8) | AUC0–∞ of converted GS441 relative to directly administered GS441 [2] | Frel / oral bioavailability of NGP-1 relative to GS441 [2]
CCC(CC)COC(=O)[C@H](C)N[P@](=O)(OC[C@H]1O[C@@](C#N)(c2ccc3c(N)ncnn23)[C@H](O)[C@@H]1O)Oc1ccccc1 [RDV, remdesivir] | more potent |  |  |  | 
CC(C)C(=O)OC[C@H]1O[C@@](C#N)(c2ccc3c(N)ncnn23)[C@@H]2OC(=O)O[C@@H]21 [NGP-1] |  | accelerate significantly | relatively stable | approximately four | approximately four and four
N#C[C@@]1(c2ccc3c(N)ncnn23)O[C@H](CO)[C@@H](O)[C@H]1O [GS441] | higher EC50 than RDV |  |  |  | 
